Data as given in US20060263802A1 (priority 2003, published 2006).
Entries after “also recorded” stand apart in the source; their conditions may differ.

Tests used:
Format in all cases: binding
[1] = tested on: human monoclonal antibody CR57
[2] = tested on: human monoclonal antibody CRJA
[3] = tested on: human monoclonal antibody CR57; remark: listed apart in the source
[4] = tested on: human monoclonal antibody CRJB
[5] = tested on: human monoclonal antibody CRJB; remark: listed apart in the source
[6] = tested on: human monoclonal antibody CRJA; remark: listed apart in the source

Sequence | Binding of CR57 to linear peptide (PEPSCAN-ELISA signal) [1] | Binding of CRJA (10 μg/ml) to looped/cyclic peptide (PEPSCAN-ELISA) [2] | Binding of CR57 (10 μg/ml) to looped/cyclic peptide (PEPSCAN-ELISA) [3] | Binding of CRJB (10 μg/ml) to looped/cyclic peptide (PEPSCAN-ELISA) [4] | Binding of CRJB to linear peptide (PEPSCAN-ELISA signal) [5] | Binding of CRJA to linear peptide (PEPSCAN-ELISA signal) [6] | Binding of CRJA (10 μg/ml) to looped/cyclic peptide (PEPSCAN-ELISA signal) [2] | Binding of CR57 (10 μg/ml) to looped/cyclic peptide (PEPSCAN-ELISA signal) [3] | Binding of CRJB (10 μg/ml) to looped/cyclic peptide (PEPSCAN-ELISA signal) [4] | binding of antibody CRJB to looped/cyclic peptide (PEPSCAN OD) [4]
MQSSLLQQHMELLES | 65 | 99 | 72 | 90 | 113 | 113 | – | – | – | –
MQTSNETKWCPPDQL | 104 | 74 | 138 | 33 | 132 | 112 | – | – | – | –
MSCDIFTNSRGKRAS | 46 | – | – | – | 110 | 71 | 49 | 71 | 73 | –
MTTKSVSFRRLSHLR | 59 | 79 | 68 | 8 | 116 | 74 | – | – | – | –
NEILPSKGCLRVGGR | 104 | 105 | 104 | 111 | 130 | 97 | – | – | – | –
NFVGYVTTTFKRKHF | 65 | – | – | – | 107 | 88 | 83 | 92 | 98 | –
NGFTCTGVVTEAENY | 69 | – | – | – | 101 | 98 | 82 | 92 | 76 | –
NGIILGPDGNVLIPE | 102 | 85 | 104 | 85 | 146 | 89 | – | – | – | –
NGVFFNGIILGPDGN | 66 | 46 | 58 | 85 | 117 | 62 | – | – | – | –
NHDYTIWMPENPRLG | 71 | – | – | – | 119 | 108 | 123 | 170 | 186 | display reactivity; also recorded: clearly bound
NKTLMEADAHYKSVR | 104 | 98 | 120 | 97 | 116 | 94 | – | – | – | –
NLHDFRSDEIEHLVV | 83 | 86 | 90 | 62 | 113 | 97 | – | – | – | –
